One molecule from patent publication US20240299595A1, “CANCER THERANOSTIC COMPOSITIONS COMPRISING BIGUANIDE COMPLEXES OF GROUP 7 TRANSITION METALS AND USES THEREOF” (BOARD OF REGENTS, THE UNIVERSITY OF TEXAS SYSTEM, priority 2021, published 2024) can be followed below.

Where only a bound is given, the exact number is not on record here.

As a reminder, the IC50 is the concentration that inhibits the measured activity by half. Lower therefore signals greater potency in that assay.

For data set [1], the system named is SKOV3. The experiment in a line: MTT cytotoxicity, ovarian cancer cell line SKOV3. Format: cell-based, human. The protocol:
Finally, a comparison study of the cytotoxicity of Re-Phen and phenformin in a panel of ovarian cancer cell lines by MTT assay after a 72 hour incubation period was conducted. Ovarian cells were seeded at 5000 cells/well in 96-well plates overnight, and treated with Re-Phen or phenformin in different concentrations (from 4.57×10^−4 mM to 1.0 mM in 3-fold increase) at 37° C. for 72 hours. Cell viability was measured using the MTT assay. The absorption at 590 nm was measured at microplate reader (SpectraMax, Molecular Device, San Diego, CA) to quantify cell numbers. The proportion of cells was normalized to that of untreated cells and expressed as mean±standard error of the mean (SEM) (n=5-6). The resulting reduced viability with half-maximal inhibitory concentration (IC50) values of mM were calculated by a sigmoidal dose-response (variable slope) curve-fitting using GraphPad Prism software. The data are shown in FIG. 19A (Re-Phen) and FIG. 19B (phenformin). […] In fact, Re-Phen is shown to display >2,000-fold and >5,000-fold higher cytotoxicity against OVACAR-8 and SKOV3 (Table 2) human ovarian cancer cell lines, respectively.

The test system of data set [2] is PDAC cells (Kras*, MiaPaca-2). The experiment in a line: Annexin V/PI flow cytometry cell death. Format: cell-based. Conditions: 250 μM, 24 hours, Kras* and MiaPaca-2 cell lines. An excerpt:
Vehicle (DMSO) treated cells were used as a control.
AMPK is a key enzyme that becomes activated under nutrient stress. Annexin V/PI double staining kit was used to detected cell death in flow cytofluorimetric analyses. […] In Kras* cell line, cells died largely of necrosis; in MiaPaca-2 cell line, cells died mostly of apoptosis.
(In flow cytometry, cells or beads pass a laser one at a time.)

Take `N=C(N)NC(=N)NCCc1ccccc1.[C-]#[O+].[C-]#[O+].[C-]#[O+].[Re+]` [Re-Phen]: in data set [1] (MTT, 72 hours), the IC50 came to 35 µM. Moreover, in data set [1] (Re-Phen versus phenformin, Table 2), the “fold higher cytotoxicity against SKOV3” value is given as > 5,000 fold. In addition, the “induction of cell death” value in data set [2] is “more potent than phenformin”.
